Assays:
soybean plants = assay: plant growth regulating activity on soybean plants; type: in vivo, variety Williams
Experimental: A number of soybean plants, variety Williams, were grown from seeds in plastic pots in the greenhouse for a period of one week at which time the plants are thinned to one plant per pot. When the second trifoliate leaf (three weeks) was fully expanded, the plants were treated with a solution of the active ingredient in acetone and water. Aqueous Tween 20 was used as a surfactant.
When the fifth trifoliate leaf (four to five weeks) was fully expanded, the treated plants were compared with the non-treated control plants and the observations recorded.

Crabgrass [1] = assay: pre-emergent herbicidal test; type: in vivo; settings: T, 4 WAT; note: ranges in brackets are in %
Experimental: (§1) The pre-emergent test was conducted as follows:
(§2) A good grade of top soil was placed in aluminum pans and compactd to a depth of 0.95 to 1.27 cm. from the top of the pan. On the top of the soil was placed a predetermined number of seeds or vegetative propagules of various plant species. The soil required to level fill the pans after seeding or adding vegetative propagules was weighed into a pan. A known amount of the herbicidal active ingredient applied in a solvent or as a wettable powder and the soil were thoroughly mixed, and used as a cover layer for prepared pans. After treatment the pans were moved into a greenhouse bench where they were watered from below as needed to give adequate moisture for germination and growth.
(§3) A herbicidal rating code was used to signify the extent of phytotoxicity of each species. The ratings are defined as follows: […]

Hemp Sesbania [2] = assay: pre-emergent herbicidal test; type: in vivo; settings: R, 4 WAT; note: ranges in brackets are in %
Experimental: as §1, §2, §3

Panicum Spp [3] = assay: pre-emergent herbicidal test; type: in vivo; settings: S, 4 WAT; note: ranges in brackets are in %
Experimental: as §1, §2, §3

Rice [4] = assay: pre-emergent herbicidal test; type: in vivo; settings: O, 4 WAT; note: ranges in brackets are in %
Experimental: as §1, §2, §3

Sorghum [5] = assay: pre-emergent herbicidal test; type: in vivo; settings: P, 4 WAT; note: ranges in brackets are in %
Experimental: as §1, §2, §3

Soybean [6] = assay: pre-emergent herbicidal test; type: in vivo; settings: L, 4 WAT; note: ranges in brackets are in %
Experimental: as §1, §2, §3

Sugar Beet [7] = assay: pre-emergent herbicidal test; type: in vivo; settings: M, 4 WAT; note: ranges in brackets are in %
Experimental: as §1, §2, §3

Wheat [8] = assay: pre-emergent herbicidal test; type: in vivo; settings: N, 4 WAT; note: ranges in brackets are in %
Experimental: as §1, §2, §3

Wild Buckwheat [9] = assay: pre-emergent herbicidal test; type: in vivo; settings: Q, 4 WAT; note: ranges in brackets are in %
Experimental: as §1, §2, §3

Crabgrass [10] = assay: post-emergent herbicidal test; type: in vivo; settings: T; note: ranges in brackets are in %
Experimental: (§4) The post-emergent tests were conducted as follows:
(§5) The herbicidal active ingredients are applied in spray form to two or three-week old specimens of various plant species. The spray, a solution or wettable powder suspension containing the appropriate rate of herbicidal active ingredient to give the desired test rate and a surfactant, is applied to the plants. The treated plants are placed in a greenhouse and approximately two or four weeks later the effects are observed and recorded. The results are shown in Tables IX and X in which the post-emergent herbicidal rating code is as follows: […]

Hemp Sesbania [11] = assay: post-emergent herbicidal test; type: in vivo; settings: R; note: ranges in brackets are in %
Experimental: as §4, §5

Panicum Spp [12] = assay: post-emergent herbicidal test; type: in vivo; settings: S; note: ranges in brackets are in %
Experimental: as §4, §5

Rice [13] = assay: post-emergent herbicidal test; type: in vivo; settings: O; note: ranges in brackets are in %
Experimental: as §4, §5

Sorghum [14] = assay: post-emergent herbicidal test; type: in vivo; settings: P; note: ranges in brackets are in %
Experimental: as §4, §5

Soybean [15] = assay: post-emergent herbicidal test; type: in vivo; settings: L; note: ranges in brackets are in %
Experimental: as §4, §5

Sugar Beet [16] = assay: post-emergent herbicidal test; type: in vivo; settings: M; note: ranges in brackets are in %
Experimental: as §4, §5

Wheat [17] = assay: post-emergent herbicidal test; type: in vivo; settings: N; note: ranges in brackets are in %
Experimental: as §4, §5

Wild Buckwheat [18] = assay: post-emergent herbicidal test; type: in vivo; settings: Q; note: ranges in brackets are in %
Experimental: as §4, §5

COC(=N)CCn1c(=O)sc2cc(Br)ccc21 [Compound 36]
plant growth regulant observations (soybean plants; 0.112 kg/h): Leaf alteration of new growth.
plant growth regulant observations (soybean plants; 0.56 kg/h): Leaf alteration of new growth.

COC(=N)Cn1c(=O)sc2ccccc21 [Compound 24]
pre-emergent herbicidal rating (Crabgrass [1]; 1.12 kg/h): 0 (0-24)
pre-emergent herbicidal rating (Crabgrass [1]; 5.6 kg/h): 1 (25-49)
pre-emergent herbicidal rating (Hemp Sesbania [2]; 1.12 kg/h): 1 (25-49)
pre-emergent herbicidal rating (Hemp Sesbania [2]; 5.6 kg/h): 3 (75-100)
pre-emergent herbicidal rating (Panicum Spp [3]; 1.12 kg/h): 0 (0-24)
pre-emergent herbicidal rating (Panicum Spp [3]; 5.6 kg/h): 0 (0-24)
pre-emergent herbicidal rating (Rice [4]; 1.12 kg/h): 0 (0-24)
pre-emergent herbicidal rating (Rice [4]; 5.6 kg/h): 1 (25-49)
pre-emergent herbicidal rating (Sorghum [5]; 1.12 kg/h): 0 (0-24)
pre-emergent herbicidal rating (Sorghum [5]; 5.6 kg/h): 0 (0-24)
pre-emergent herbicidal rating (Soybean [6]; 1.12 kg/h): 2 (50-74)
pre-emergent herbicidal rating (Soybean [6]; 5.6 kg/h): 3 (75-100)
pre-emergent herbicidal rating (Sugar Beet [7]; 1.12 kg/h): 1 (25-49)
pre-emergent herbicidal rating (Sugar Beet [7]; 5.6 kg/h): 3 (75-100)
pre-emergent herbicidal rating (Wheat [8]; 1.12 kg/h): 1 (25-49)
pre-emergent herbicidal rating (Wheat [8]; 5.6 kg/h): 1 (25-49)
pre-emergent herbicidal rating (Wild Buckwheat [9]; 1.12 kg/h): 1 (25-49)
pre-emergent herbicidal rating (Wild Buckwheat [9]; 5.6 kg/h): 3 (75-100)
post-emergent herbicidal rating (Crabgrass [10]; 0.056 kg/h, 2 WAT): 0 (0-24)
post-emergent herbicidal rating (Crabgrass [10]; 0.28 kg/h, 4 WAT): 0 (0-24)
post-emergent herbicidal rating (Crabgrass [10]; 1.12 kg/h, 4 WAT): 0 (0-24)
post-emergent herbicidal rating (Crabgrass [10]; 5.6 kg/h, 4 WAT): 0 (0-24)
post-emergent herbicidal rating (Hemp Sesbania [11]; 0.056 kg/h, 2 WAT): 0 (0-24)
post-emergent herbicidal rating (Hemp Sesbania [11]; 0.28 kg/h, 4 WAT): 1 (25-49)
post-emergent herbicidal rating (Hemp Sesbania [11]; 1.12 kg/h, 4 WAT): 2 (50-74)
post-emergent herbicidal rating (Hemp Sesbania [11]; 5.6 kg/h, 4 WAT): 4 (100)
post-emergent herbicidal rating (Panicum Spp [12]; 0.056 kg/h, 2 WAT): 0 (0-24)
post-emergent herbicidal rating (Panicum Spp [12]; 0.28 kg/h, 4 WAT): 0 (0-24)
post-emergent herbicidal rating (Panicum Spp [12]; 1.12 kg/h, 4 WAT): 0 (0-24)
post-emergent herbicidal rating (Panicum Spp [12]; 5.6 kg/h, 4 WAT): 0 (0-24)
post-emergent herbicidal rating (Rice [13]; 0.056 kg/h, 2 WAT): 0 (0-24)
post-emergent herbicidal rating (Rice [13]; 0.28 kg/h, 4 WAT): 0 (0-24)
post-emergent herbicidal rating (Rice [13]; 1.12 kg/h, 4 WAT): 1 (25-49)
post-emergent herbicidal rating (Rice [13]; 5.6 kg/h, 4 WAT): 0 (0-24)
post-emergent herbicidal rating (Sorghum [14]; 0.056 kg/h, 2 WAT): 0 (0-24)
post-emergent herbicidal rating (Sorghum [14]; 0.28 kg/h, 4 WAT): 0 (0-24)
post-emergent herbicidal rating (Sorghum [14]; 1.12 kg/h, 4 WAT): 1 (25-49)
post-emergent herbicidal rating (Sorghum [14]; 5.6 kg/h, 4 WAT): 1 (25-49)
post-emergent herbicidal rating (Soybean [15]; 0.056 kg/h, 2 WAT): 1 (25-49)
post-emergent herbicidal rating (Soybean [15]; 0.28 kg/h, 4 WAT): 1 (25-49)
post-emergent herbicidal rating (Soybean [15]; 1.12 kg/h, 4 WAT): 2 (50-74)
post-emergent herbicidal rating (Soybean [15]; 5.6 kg/h, 4 WAT): 2 (50-74)
post-emergent herbicidal rating (Sugar Beet [16]; 0.056 kg/h, 2 WAT): 1 (25-49)
post-emergent herbicidal rating (Sugar Beet [16]; 0.28 kg/h, 4 WAT): 1 (25-49)
post-emergent herbicidal rating (Sugar Beet [16]; 1.12 kg/h, 4 WAT): 2 (50-74)
post-emergent herbicidal rating (Sugar Beet [16]; 5.6 kg/h, 4 WAT): 3 (75-99)
post-emergent herbicidal rating (Wheat [17]; 0.056 kg/h, 2 WAT): 0 (0-24)
post-emergent herbicidal rating (Wheat [17]; 0.28 kg/h, 4 WAT): 0 (0-24)
post-emergent herbicidal rating (Wheat [17]; 1.12 kg/h, 4 WAT): 0 (0-24)
post-emergent herbicidal rating (Wheat [17]; 5.6 kg/h, 4 WAT): 1 (25-49)
post-emergent herbicidal rating (Wild Buckwheat [18]; 0.056 kg/h, 2 WAT): 1 (25-49)
post-emergent herbicidal rating (Wild Buckwheat [18]; 0.28 kg/h, 4 WAT): 1 (25-49)
post-emergent herbicidal rating (Wild Buckwheat [18]; 1.12 kg/h, 4 WAT): 4 (100)
post-emergent herbicidal rating (Wild Buckwheat [18]; 5.6 kg/h, 4 WAT): 4 (100)

Reference: patent US4228292A, “N-Substituted benzothiazolines and benzoxazolines and their use as herbicides and plant growth regulants” (Monsanto Company, priority 1978, dated 1980)
